From patent US20200179479A1, “INHIBITION OF ALPHA5BETA1 INTEGRIN WITH ATN-161 AS A NOVEL THERAPY FOR VASCULAR DEMENTIA” (University of Kentucky Research Foundation, priority 2018, published 2020)
Entries after “also recorded” stand apart in the source; their conditions may differ.

What was measured:
[1] = target: T1, integrin α5β1 (Mus musculus, UniProt P09055+P11688); experiment: MRI (ADC and T2-weighted) infarct and edema volume after experimental ischemic stroke; type: in vivo
T1 construct: Animals received an IP injection of either Vehicle (sterile PBS) or ATN-161; from tissue; host or cells: living mouse; brain / cerebrovasculature
Experimental: (§1) Mice underwent transient tandem ipsilateral common carotid artery/middle cerebral artery (CCA/MCA) occlusion for 60 minutes as previously published, followed by reperfusion for 1-3 days. Briefly, a small burr hole is created directly over the M2 branch of the MCA, and a 0.0005 inch metal filament is placed under the artery on both sides of the burr hole. The CCA was then isolated and occluded using an aneurysm clip. Blood flow was determined with the Laser Doppler Perfusion Monitor (Perimed, Ardmore, Pa., USA). Animals that received less than 80% occlusion rate from baseline (i.e. pre-occlusion) were excluded from analysis. Sham animals underwent the listed procedure without vascular occlusion. All mice were allowed to recover to post-stroke day (PSD)3, during which daily body weights were measured.
Animals received an IP injection of either Vehicle (sterile PBS) or ATN-161 (lmg/kg, Medkoo Biosciences, Morrisville, N.C., USA) immediately after reperfusion, PSD1 and on PSD2. […] Accounting for edema volume, infarct size based on TTC images was analyzed with Image J (NH) software as:
PSD3 animals were anesthetized with isoflurane and placed on a heated bed where body temperature and breathing rate were carefully monitored throughout the scan. […] All images were analyzed with ITK-SNAP (www.itksnap.org) by a blinded, independent neuroradiologist. […]

[2] = test system: Claudin-5; experiment: Immunofluorescence of Claudin-5 in stroked brain; type: in vivo, mouse; conditions: mean±SD, n=6; Vehicle 19830±5538
Experimental: (§2) On PSD3, animals were systemically perfused with PBS (Phosphate Buffered Solution, 1×) for 5 minutes. Brains were removed, flash frozen in liquid nitrogen, and stored at −20 C until use. The brains were coronally sectioned by cryostat at 20 μm and mounted (four per slide, 2 mm separating each section) for staining. Negative controls (no primary antibody) were run in tandem with each target to determine thresholding values.
(§3) Sections were fixed in methanol:acetone (1:1), followed by blocking buffer (5% bovine serum albumin (Fisher Scientific) in PBS with 0.1% Triton-X). Sections were incubated in primary antibody overnight at 4 C (anti-rabbit PECAM at 1:100, Fisher Scientific; anti-rat CD49e at 1:250, BD Pharminagen; anti-rat CD45 at 1:200, ThermoFisher Scientific, anti-rabbit Claudin-5 at 1:200, Abcam, anti-rabbit MMP-9 at 1:100, Abcam, and anti-rabbit fibronectin at 1:100, Abcam). Sections were washed and placed in fluorophore-conjugated secondary antibody, followed by NucBlue cell nucleus counterstain (Fisher Scientific) at room temperature (Vector Labs, 1:250), then cover slipped (Vector Labs) and imaged on a Nikon Eclipse Ti and software (Nikon, Melville, N.Y., USA). Image J was used to quantify all Immunofluorescence positive pixels. CD45: One 4× image per all four sections were taken and averaged. […]

[3] = target: T2, α5β1 integrin (Mus musculus, UniProt P09055+P11688); experiment: BCAS mouse model, y-maze % spontaneous alternation; type: in vivo; conditions: post-stenosis day 14, 1 mg/kg i.p. after surgery and days 2, 4, 6, 8, 10, 12, n=4
T2 construct: Mice (WT, α5KO, DB) are subjected to either sham or BCAS (0.18 mm ID coils) surgery; from tissue; host or cells: living mouse; brain (cortex)
Experimental: On post-stenosis day 14, mice underwent y-maze testing and % spontaneous alternation (working memory) was quantified. BCAS animals were treated with vehicle or ATN-161 (1 mg/kg; i.p.) treatment immediately after surgery and on post-stenosis days 2, 4, 6, 8, 10, 12. […] Sham: n=4; BCAS: n=8; ATN-161: n=4
(§4) Mice (WT, α5KO, DB) are subjected to either sham or BCAS (0.18 mm ID coils) surgery. Euthanasia and brain tissue extraction, and processing for immunohistochemistry or western blot analysis (see below) will occur at early (14 days) or late (30 and 60 days) time points following BCAS. This will allow correlation of α5β1 integrin expression levels with the progression of brain injury over time, whether it could potentially contribute to this pathology early and/or late, and determine whether this is influenced by the diabetic phenotype prior to overt cerebrovascular pathology.

[4] = test system: MMP-9; experiment: Immunohistochemical staining of MMP-9 in stroked brain; type: in vivo, mouse; conditions: mean±SD, n=7
Experimental: as §2, §3

[5] = test system: MMP-9; experiment: qPCR of ipsilateral cortex at PSD3, MMP-9; type: in vivo, mouse; conditions: relative to sham; mean±SD, n=7; Sham 1.018±0.1759, Vehicle 6.761±5.321
Experimental: (§5) On PSD3, brains were removed and sectioned at 2 mm where the ipsilateral cortical tissue and corresponding contralateral cortical tissue were isolated. All sections per animal were combined and homogenized in Trizol (Life Technologies). RNA extraction was performed according to the RNA extraction kit provided by the manufacturer (Life Technologies). RNA was converted to cDNA using a high capacity cDNA reverse transcriptase kit (Applied Bioscience, Grand Island, N.Y., USA). 18S (control; Mm03928990_g1), collagen IV (Mm00483669_m1), IL-1β (Mm00434228_m1), CXCL12 (Mm00445553_m1), and MMP9 (Mm00442991_m1) Taqman genes were analyzed using Real-time PCR (ViiA7, Life Technologies). Data was analyzed as fold change comparing vehicle and ATN-161 treated mice as a % control (sham).

[6] = Physiological measurements (MouseOx) and body weight after reperfusion in stroked mice; type: in vivo, mouse
Experimental: as §1
Immediately following reperfusion, heart, rate, pulse distension, and body temperature were recorded using MouseOx (Starr Life Science, Holliston, Mass., USA). After 5 minutes, sterile PBS (Vehicle) or ATN-161 was injected via IP (as described below); mice were continually observed for 15 minutes post reperfusion.

[7] = target: T1, integrin α5β1; experiment: Immunohistochemistry of integrin α5β1 (CD49e) in stroked brain; type: in vivo; conditions: 1 mg/kg IP x3; mean±SD, n=7; Vehicle 308484±53485; p=0.0835
Experimental: as §2, §3

[8] = Phase I and II clinical oncology studies, 1 mg/kg 10-minute infusions: dry mouth, cellulitis, paresthesia in one out of four patients; cited from earlier work
[9] = test system: IL-1β; experiment: qPCR of ipsilateral cortex at PSD3, IL-1β; type: in vivo, mouse; conditions: relative to sham; mean±SD, n=7; Sham 1.023±0.1666, Vehicle 27.04±19.96
Experimental: as §5

[10] = target: T1, integrin α5β1; experiment: 11-point behavioral Neuroscore after experimental ischemic stroke; type: in vivo; conditions: vs Vehicle
Experimental: as §1
Animals received an IP injection of either Vehicle (sterile PBS) or ATN-161 (lmg/kg, Medkoo Biosciences, Morrisville, N.C., USA) immediately after reperfusion, PSD1 and on PSD2. Ischemic stroke was confirmed on 2 mm sections stained with […] (TTC; BD, Sparks, M D, USA) or Magnetic Resonance Imaging on PSD3. Accounting for edema volume, infarct size based on TTC images was analyzed with Image J (NH) software as: […]

[11] = test system: collagen IV; experiment: qPCR of ipsilateral cortex at PSD3, collagen IV; type: in vivo, mouse; conditions: relative to sham; mean±SD, n=8; Sham 1.018±0.1573, Vehicle 0.3543±0.1013
Experimental: as §5

[12] = test system: CXCL12; experiment: qPCR of ipsilateral cortex at PSD3, CXCL12; type: in vivo, mouse; conditions: relative to sham; mean±SD, n=8; Sham 1.015±0.1964, Vehicle 0.5271±0.1779
Experimental: as §5

[13] = test system: angiogenesis and tumor growth; conditions: Donate et al.; cited from earlier work
[14] = target: T2, α5β1 integrin; experiment: BCAS mouse model, α5 staining in cortex; type: in vivo; conditions: 14 days, 1 mg/kg i.p. after surgery and every other day to day 12, n=4, preliminary data
Experimental: Representative images within the cortex of α5 staining in BCAS animals treated with ATN-161 (1 mg/kg; i.p.). ATN-161 n=4
Quantification of α5-positive pixel density. ***p≤0.001 compared to sham group.
as §4

[15] = test system: IgG; experiment: IgG immunohistochemistry (BBB permeability, IgG extravasation) in stroked brain; type: in vivo, mouse; conditions: PSD3; 1 mg/kg IP x3; mean±SD, n=8; Vehicle 70125±53485
Experimental: as §2
Sections were fixed in 10% phosphate-buffered formalin. After washing, IgG 568 biotinylated antibody (1:500, Thermo-Fisher Scientific) in 1% bovine serum albumin was applied to the tissue for 2 hours. Slides were then cover slipped (Vector Labs) for imaging on a Nikon Eclipse Ti and software (Nikon, Melville, N.Y., USA). Image J was used to isolate and count IgG positive pixels. Three separate 20× images per core region were taken per section and averaged.

[16] = test system: GFAP; experiment: BCAS mouse model, GFAP (astrocyte marker) staining in striatum; type: in vivo; conditions: 14 days, striatum/white matter, 1 mg/kg i.p. after surgery and days 2, 4, 6, 8, 10, 12, n=4
Experimental: Representative images within the striatum of GFAP (astrocyte marker) staining in BCAS animals treated with ATN-161 (1 mg/kg; i.p.); treatment immediately after surgery and on post-stenosis days 2, 4, 6, 8, 10, 12. ATN-161: n=4
Quantification of GFAP-positive pixel density. **p≤0.01 compared to sham group.
as §4

[17] = test system: α5β1 integrin; conditions: single IP dose 24 hours after MCAO; Wu et al.; cited from earlier work
[18] = IP ATN-161 5 min after reperfusion, vs Vehicle

T2 sequence (P11688 45-898 limits assumed): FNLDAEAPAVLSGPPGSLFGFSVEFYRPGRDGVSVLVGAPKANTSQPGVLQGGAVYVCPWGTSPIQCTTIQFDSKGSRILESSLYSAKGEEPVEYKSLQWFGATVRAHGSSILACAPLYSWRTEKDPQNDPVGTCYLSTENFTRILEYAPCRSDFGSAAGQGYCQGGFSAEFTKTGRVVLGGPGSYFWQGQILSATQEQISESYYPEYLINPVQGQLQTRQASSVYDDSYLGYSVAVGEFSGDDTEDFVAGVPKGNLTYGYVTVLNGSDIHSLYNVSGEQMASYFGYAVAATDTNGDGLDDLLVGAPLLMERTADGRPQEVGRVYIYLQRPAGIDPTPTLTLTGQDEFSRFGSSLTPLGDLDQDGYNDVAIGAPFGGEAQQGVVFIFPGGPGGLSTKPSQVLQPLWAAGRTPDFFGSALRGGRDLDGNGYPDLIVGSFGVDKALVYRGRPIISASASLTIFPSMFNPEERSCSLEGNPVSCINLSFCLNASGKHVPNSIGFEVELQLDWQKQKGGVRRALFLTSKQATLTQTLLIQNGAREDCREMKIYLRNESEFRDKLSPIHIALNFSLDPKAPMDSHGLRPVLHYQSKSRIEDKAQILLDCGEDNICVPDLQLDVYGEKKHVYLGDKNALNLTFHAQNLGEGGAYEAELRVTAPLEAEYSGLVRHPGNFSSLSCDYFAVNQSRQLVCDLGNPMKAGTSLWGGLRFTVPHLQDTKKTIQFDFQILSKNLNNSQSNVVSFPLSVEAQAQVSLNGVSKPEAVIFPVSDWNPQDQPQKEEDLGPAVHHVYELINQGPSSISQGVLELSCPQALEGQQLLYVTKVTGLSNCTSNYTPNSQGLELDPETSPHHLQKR
T2 sequence (P11688 899-1053 limits assumed): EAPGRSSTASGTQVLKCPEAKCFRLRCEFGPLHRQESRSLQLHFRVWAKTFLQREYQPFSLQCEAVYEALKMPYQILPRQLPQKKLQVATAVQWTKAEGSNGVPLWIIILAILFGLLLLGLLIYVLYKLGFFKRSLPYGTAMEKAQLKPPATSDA
T2 sequence (P09055 21-798): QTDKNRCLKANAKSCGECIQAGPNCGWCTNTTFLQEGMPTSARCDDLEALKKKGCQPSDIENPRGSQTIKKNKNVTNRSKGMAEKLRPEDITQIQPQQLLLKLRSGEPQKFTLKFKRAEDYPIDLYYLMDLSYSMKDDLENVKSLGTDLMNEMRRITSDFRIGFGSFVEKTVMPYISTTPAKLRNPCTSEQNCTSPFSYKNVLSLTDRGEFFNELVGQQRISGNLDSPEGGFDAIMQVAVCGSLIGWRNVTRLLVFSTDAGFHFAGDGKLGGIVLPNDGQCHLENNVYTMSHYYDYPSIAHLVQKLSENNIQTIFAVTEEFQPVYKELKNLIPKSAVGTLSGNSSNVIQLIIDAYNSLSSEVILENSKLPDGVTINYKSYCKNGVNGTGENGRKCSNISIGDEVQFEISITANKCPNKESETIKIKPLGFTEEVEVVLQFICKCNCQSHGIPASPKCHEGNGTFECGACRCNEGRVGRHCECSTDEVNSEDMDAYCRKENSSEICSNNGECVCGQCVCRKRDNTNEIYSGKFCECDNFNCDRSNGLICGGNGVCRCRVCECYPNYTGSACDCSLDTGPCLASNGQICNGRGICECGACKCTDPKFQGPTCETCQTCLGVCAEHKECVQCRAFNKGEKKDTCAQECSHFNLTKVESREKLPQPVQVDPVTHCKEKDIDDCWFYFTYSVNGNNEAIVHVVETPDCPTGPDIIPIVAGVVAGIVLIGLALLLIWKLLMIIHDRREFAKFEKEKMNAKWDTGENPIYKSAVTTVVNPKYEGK
T1 sequence (P11688 45-898 limits assumed): as the sequence (P11688 45-898 limits assumed) above
T1 sequence (P11688 899-1053 limits assumed): as the sequence (P11688 899-1053 limits assumed) above
T1 sequence (P09055 21-798): as the sequence (P09055 21-798) above

Ac-PHSCN-NH2 [ATN-161]
Infarct volume analysis of T2 weighted MRI scan following MCAo ([1]; 1 mg/kg, PSD 3, n=8 vs Vehicle n=7, p≤0.05): reduces infarct volume; also recorded: decreased infarct volumes
ADC analysis for infarct volume ([1]; PSD3, 1 mg/kg IP after reperfusion, PSD1, PSD2, absent edema volume, mean±SD, n=8, Vehicle 17.9±4.677): 12.24±3.758
Claudin-5 positive pixels in the core at PSD3 [2]: 44220±19878 positive pixels
cognitive outcome, y-maze % spontaneous alternation (working memory) [3]: improves cognitive outcome; also recorded: A positive trend is observed
MMP-9 positive pixels at PSD3 in the peri-infarct ([4]; Vehicle 189516±170441, p=0.0450): 42227±180171 positive pixels
MMP-9 positive pixels at PSD3 in the core ([4]; Vehicle 443691±220951, p=0.0734): 232262±68098 positive pixels
qPCR MMP-9, ipsilateral cortex at PSD3 [5]: 2.757±2.401 fold change
percent change of body temperature following reperfusion [6, 18]: did not show any differences
percent change of heart rate (bpm) following reperfusion [6, 18]: did not show any differences
percent change of pulse distension following reperfusion [6, 18]: did not show any differences
percent change of body weight following ischemic stroke ([6]; IP ATN-161, vs Vehicle): did not show any differences
Integrin α5β1 analysis at PSD3 in peri-infarct [7]: 162166±23348 positive pixels
safety and tolerability in clinical trials [8]: safe and well-tolerated; also recorded: limited side effects
qPCR IL-1β, ipsilateral cortex at PSD3 [9]: 11.89±9.235 fold change
11-point Neuroscore on PSD1 [10]: no difference
qPCR collagen IV, ipsilateral cortex at PSD3 [11]: 0.8563±0.6898 fold change
qPCR CXCL12, ipsilateral cortex at PSD3 [12]: 0.8488±0.2846 fold change
doses producing the most significant reduction in activity (angiogenesis and tumor growth) [13]: 1 to 5 mg/kg
α5 expression (α5-positive pixel density) in cortex following BCAS [14]: decreases α5β1 integrin expression compared to controls; also recorded: decreases α5 expression compared to controls
IgG positive pixel analysis in the core [15]: 16753±23348 positive pixels
inflammation (GFAP-positive pixel density, astrocyte activation) following BCAS [16]: decreases inflammation compared to controls

PHSRN
effect after rat transient MCAO [17]: neuroprotective, proangiogenic and increased neurogenesis
